Test results from patent publication US8388950B2, “Coenzyme Q10-containing water-soluble composition and process for production thereof” (Kaneka Corporation, priority 2005, dated 2013).

Assay: DSC determination of the crystallization peak of coenzyme Q10 (effect of preventing crystallization)
Type: physicochemical
Conditions: held at 80° C. 10 minutes, cooled to −50° C. at −5° C./min
Description: The component materials shown in Table 1 were warmed and dissolved at 60° C., and weighed out the appropriate amount on a measuring aluminum pan to make samples for DSC determination.
Using the samples obtained in Reference Examples 1 to 10, the effect of preventing coenzyme Q10 crystallization derived from a lipophilic sucrose fatty acid ester was determined by DSC (differential scanning calorimetry).
Detector: DSC6220 (manufactured by SII Nano Technology Inc.)
Determination condition: the crystallization peak (exothermic peak) of coenzyme Q10 was determined after retaining the samples at 80° C. for 10 minutes and then cooling them to −50° C. at a cooling rate of −5° C./rain.

COC1=C(OC)C(=O)C(C/C=C(\C)CC/C=C(\C)CC/C=C(\C)CC/C=C(\C)CC/C=C(\C)CC/C=C(\C)CC/C=C(\C)CC/C=C(\C)CC/C=C(\C)CCC=C(C)C)=C(C)C1=O [compound 4, Coenzyme Q10]
DSC exothermic peak: −11.4 °C
